Measured values reported in patent publication US8163724B2, “Glucocorticosteroids, processes for their preparation, pharmaceutical compositions containing them and their use in therapy” (AstraZeneca AB, priority 2007, dated 2012).

These molecules were tested against T1, recombinant human GR (Homo sapiens, UniProt P04150) (assay: Human Glucocorticoid Receptor (GR) Assay (fluorescence polarization, Panvera/Invitrogen kit)). Settings: fluorescence polarization; GS Red tracer; 2 hours at room temperature; 100% control 10 μM Dexamethasone; read-out: Inhibition of GR binding, IC50.
T1 construct: purchased Panvera/Invitrogen P2812 (kit P2893)
T1 sequence (P04150 1-777): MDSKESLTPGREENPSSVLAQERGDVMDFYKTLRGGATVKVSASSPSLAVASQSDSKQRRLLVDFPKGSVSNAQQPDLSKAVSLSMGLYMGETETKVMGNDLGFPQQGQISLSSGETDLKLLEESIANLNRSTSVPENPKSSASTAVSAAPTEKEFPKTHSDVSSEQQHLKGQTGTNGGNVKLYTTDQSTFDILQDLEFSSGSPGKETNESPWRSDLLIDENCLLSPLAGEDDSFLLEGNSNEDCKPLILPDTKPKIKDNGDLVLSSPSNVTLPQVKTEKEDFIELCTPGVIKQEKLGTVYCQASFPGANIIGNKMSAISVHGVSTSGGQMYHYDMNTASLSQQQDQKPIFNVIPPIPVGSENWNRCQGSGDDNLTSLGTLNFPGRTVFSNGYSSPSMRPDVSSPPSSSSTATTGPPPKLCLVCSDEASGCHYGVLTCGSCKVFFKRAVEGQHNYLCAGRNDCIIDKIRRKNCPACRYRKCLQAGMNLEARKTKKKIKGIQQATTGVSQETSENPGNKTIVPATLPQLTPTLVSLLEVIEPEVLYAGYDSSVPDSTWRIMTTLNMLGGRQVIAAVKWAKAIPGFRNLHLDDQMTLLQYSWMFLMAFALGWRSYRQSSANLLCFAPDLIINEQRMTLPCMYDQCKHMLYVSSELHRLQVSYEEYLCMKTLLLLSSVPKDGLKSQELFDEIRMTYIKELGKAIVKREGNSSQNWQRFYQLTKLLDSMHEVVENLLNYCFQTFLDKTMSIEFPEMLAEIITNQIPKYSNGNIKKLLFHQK
Format: binding
In short: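 Fluorescence polarization competition with recombinant GR and GS Red fluorescent ligand plus stabilizing peptide and DTT in potassium phosphate/sodium molybdate/EDTA buffer with DMSO. Incubated 2 hours at room temperature in the dark; 0% control DMSO, 100% control 10 μM dexamethasone.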

SMILES	IC50 [nM]
CSCC(=O)[C@@]1(OC(C)=O)CC[C@H]2[C@@H]3CCC4=Cc5c(cnn5-c5ccc(F)cc5)C[C@]4(C)[C@H]3[C@@H](O)C[C@@]21C [Example 124, (1R,3aS,3bS,10aR,10bS,11S,12aS)-7-(4-Fluorophenyl)-11-hydroxy-10a,12a-dimethyl-1-[(methylsulfanyl)acetyl]-1,2,3,3a,3b,4,5,7,10,10a,10b,11,12,12a-tetradecahydrocyclopenta[5,6]naphtho[1,2-f]indazol-1-yl acetate]	2.4
CSCO[C@]1(C(=O)SCF)CC[C@H]2[C@@H]3CCC4=Cc5c(cnn5-c5ccc(F)cc5)C[C@]4(C)[C@H]3[C@@H](O)C[C@@]21C [Example 125, S-(Fluoromethyl)(1R,3aS,3bS,10aR,10bS,11S,12aS)-7-(4-fluorophenyl)-11-hydroxy-10a,12a-dimethyl-1-[(methylsulfanyl)methoxy]1,2,3,3a,3b,4,5,7,10,10a,10b,11,12,12a-tetradecahydrocyclopenta[5,6]naphtho[1,2-f]indazole-1-carbothioate]	4.7
C[C@]12Cc3cnn(-c4ccc(F)cc4)c3C=C1CC[C@@H]1[C@@H]2[C@@H](O)C[C@@]2(C)[C@H]1CC[C@]2(OC(=O)C1CCOCC1)C(=O)SCC#N [Example 126, (1R,3aS,3bS,10aR,10bS,11S,12aS)-1-{[(Cyanomethyl)sulfanyl]carbonyl}-7-(4-fluorophenyl)-11-hydroxy-10a,12a-dimethyl-1,2,3,3a,3b,4,5,7,10,10a,10b,11,12,12a-tetradecahydrocyclopenta[5,6]naphtho[1,2-f]indazol-1-yl tetrahydro-2H-pyran-4-carboxylate]	2.7
C[C@]12Cc3cnn(-c4ccc(F)cc4)c3C=C1CC[C@@H]1[C@@H]2[C@@H](O)C[C@@]2(C)[C@H]1CC[C@]2(OC(=O)C1CCOCC1)C(=O)SCCO [Example 127, (1R,3aS,3bS,10aR,10bS,11S,12aS)-7-(4-Fluorophenyl)-11-hydroxy-1-{[(2-hydroxyethyl)sulfanyl]carbonyl}-10a,12a-dimethyl-1,2,3,3a,3b,4,5,7,10,10a,10b,11,12,12a-tetradecahydrocyclopenta[5,6]naphtho[1,2-f]indazol-1-yl tetrahydro-2H-pyran-4-carboxylate]	3.7
CC(=O)O[C@]1(C(=O)CSC#N)CC[C@H]2[C@@H]3CCC4=Cc5c(cnn5-c5ccc(F)cc5)C[C@]4(C)[C@H]3[C@@H](O)C[C@@]21C [Example 130, (1R,3aS,3bS,10aR,10bS,11S,12aS)-7-(4-Fluorophenyl)-11-hydroxy-10a,12a-dimethyl-1-(thiocyanatoacetyl)-1,2,3,3a,3b,4,5,7,10,10a,10b,11,12,12a-tetradecahydrocyclopenta[5,6]naphtho[1,2-f]indazol-1-yl acetate]	5.9
CCSCC(=O)[C@@]1(OC(C)=O)CC[C@H]2[C@@H]3CCC4=Cc5c(cnn5-c5ccc(F)cc5)C[C@]4(C)[C@H]3[C@@H](O)C[C@@]21C [Example 131, (1R,3aS,3bS,10aR,10bS,11S,12aS)-1-[(Ethylsulfanyl)acetyl]-7-(4-fluorophenyl)-11-hydroxy-10a,12a-dimethyl-1,2,3,3a,3b,4,5,7,10,10a,10b,11,12,12a-tetradecahydrocyclopenta[5,6]naphtho[1,2-f]indazol-1-yl acetate]	4.1
CSSCC(=O)[C@@]1(OC(C)=O)CC[C@H]2[C@@H]3CCC4=Cc5c(cnn5-c5ccc(F)cc5)C[C@]4(C)[C@H]3[C@@H](O)C[C@@]21C [Example 134, (1R,3aS,3bS,10aR,10bS,11S,12aS)-7-(4-Fluorophenyl)-11-hydroxy-10a,12a-dimethyl-1-[(methyldisulfanyl)acetyl]-1,2,3,3a,3b,4,5,7,10,10a,10b,11,12,12a-tetradecahydrocyclopenta[5,6]naphtho[1,2-f]indazol-1-yl acetate]	2.9
COC1(C(=O)O[C@]2(C(=O)SCC#N)CC[C@H]3[C@@H]4CCC5=Cc6c(cnn6-c6ccc(F)cc6)C[C@]5(C)[C@H]4[C@@H](O)C[C@@]32C)CC1 [Example 135, (1R,3aS,3bS,10aR,10bS,11S,12aS)-1-{[(Cyanomethyl)sulfanyl]carbonyl}-7-(4-fluorophenyl)-11-hydroxy-10a,12a-dimethyl-1,2,3,3a,3b,4,5,7,10,10a,10b,11,12,12a-tetradecahydrocyclopenta[5,6]naphtho[1,2-f]indazol-1-yl 1-methoxycyclopropanecarboxylate]	7.6
C[C@]12Cc3cnn(-c4ccc(F)cc4)c3C=C1CC[C@@H]1[C@@H]2[C@@H](O)C[C@@]2(C)[C@H]1CC[C@]2(OC(=O)C1CCCO1)C(=O)SCF (stereo partly drawn) [Example 137, (1R,3aS,3bS,10aR,10bS,11S,12aS)-1-{[(Fluoromethyl)sulfanyl]carbonyl}-7-(4-fluorophenyl)-11-hydroxy-10a,12a-dimethyl-1,2,3,3a,3b,4,5,7,10a,10b,11,12,12a-tetradecahydrocyclopenta[5,6]naphtho[1,2-f]indazol-1-yl (2R)-tetrahydrofuran-2-carboxylate]	2.8
C[C@]12Cc3cnn(-c4ccc(F)c(CO)c4)c3C=C1CC[C@@H]1[C@@H]2[C@@H](O)C[C@@]2(C)[C@H]1CC[C@]2(OC(=O)C1CC1)C(=O)SCF [Example 139, (1R,3aS,3bS,10aR,10bS,11S,12aS)-7-[4-Fluoro-3-(hydroxymethyl)phenyl]-1-{[(fluoromethyl)thio]carbonyl}-11-hydroxy-10a,12a-dimethyl-1,2,3,3a,3b, 4,5,7,10,10a,10b,11,12,12a-tetradecahydrocyclopenta[5,6]naphtho[1,2-f]indazol-1-yl cyclopropanecarboxylate]	3.5
COCC(=O)O[C@]1(C(=O)SCC#N)CC[C@H]2[C@@H]3CCC4=Cc5c(cnn5-c5ccc(F)c(CO)c5)C[C@]4(C)[C@H]3[C@@H](O)C[C@@]21C [Example 140, (1R,3aS,3bS,10R,10bS,11S,12aS)-1-{[(Cyanomethyl)thio]carbonyl}-7-[4-fluoro-3-(hydroxymethyl)phenyl]-11a,12a-dimethyl-1,2,3,3a,3b,4,5,7,10,10a,10b,11,12,12a-tetradecahydrocyclopenta[5,6]naphtho[1,2-f]indazol-1-yl Methoxyacetate]	2.3
C[C@@H]1C[C@H]2[C@@H]3CCC4=Cc5c(cnn5-c5ccc(F)cc5)C[C@]4(C)[C@H]3[C@@H](O)C[C@]2(C)[C@@]1(OC(=O)c1ccco1)C(=O)SCC#N [Example 141, (1R,2R,3aS,3bS,10aR,10bS,11S,12aS)-1-{[(Cyanomethyl)thio]carbonyl}-7-(4-fluorophenyl)-11-hydroxy-2,10a,12a-trimethyl-1,2,3,3a,3b,4,5,7,10,10a,10b,11,12,12a-tetradecahydrocyclopenta[5,6]naphtho[1,2-f]indazol-1-yl furan-2-carboxylate]	13
Cc1cc(-n2ncc3c2C=C2CC[C@@H]4[C@H]([C@@H](O)C[C@@]5(C)[C@H]4CC[C@]5(OC(=O)C4CC4)C(=O)OCC#N)[C@@]2(C)C3)ccn1 [Example 142, Cyanomethyl(1R,3aS,3bS,10aR,10bS,11S,12aS)-1-[(cyclopropylcarbonyl)oxy]-11-hydroxy-10a,12a-dimethyl-7-(2-methylpyridin-4-yl)-1,2,3,3a,3b,4,5,7,10,10a,10b,11,12,12a-tetradecahydrocyclopenta[5,6]naphtho[1,2-]indazole-1-carboxylate]	1.6
C[C@]12Cc3cnn(-c4ccccn4)c3C=C1CC[C@@H]1[C@@H]2[C@@H](O)C[C@@]2(C)[C@H]1CC[C@]2(OC(=O)C1CC1)C(=O)OCC#N [Example 143, Cyanomethyl(1R,3aS,3bS,10aR,10bS,11S,12aS)-1-[(cyclopropylcarbonyl)oxy]-11-hydroxy-10a,12a-dimethyl-7-pyridin-2-yl-1,2,3,3a,3b,4,5,7,10,11a,10b,11,12,12a-tetradecahydrocyclopenta[5,6]naphtho[1,2-f]indazole-1-carboxylate]	1.5
C[C@]12Cc3cnn(-c4ccc(F)c(CO)c4)c3C=C1CC[C@@H]1[C@@H]2[C@@H](O)C[C@@]2(C)[C@H]1CC[C@]2(OC(=O)C1CC1)C(=O)SCC#N [Example 144, (1R,3aS,3bS,10aR,10bS,11S,12aS)-1-{[(Cyanomethyl)sulfanyl]carbonyl}-7-[4-fluoro-3-(hydroxymethyl)phenyl-]-11-hydroxy-10a,12a-dimethyl-1,2,3,3a,3b, 4,5,7,10,10a,11,12,12a-tetradecahydrocyclopenta[5,6]naphtho[1,2-f]indazol-1-yl Cyclopropanecarboxylate]	3.8
